Laboratory results reported in patent US7932262B2 (Novartis AG, priority 2006, dated 2011).

What was measured:
PDK1 kinase = molecular target: T1, PDK1 kinase (Homo sapiens, UniProt O15530); assay: PDK1 Kinase Alpha Screen Assay; assay type: biochemical; details: read-out: PDK1 IC50
T1 sequence (O15530 1-556): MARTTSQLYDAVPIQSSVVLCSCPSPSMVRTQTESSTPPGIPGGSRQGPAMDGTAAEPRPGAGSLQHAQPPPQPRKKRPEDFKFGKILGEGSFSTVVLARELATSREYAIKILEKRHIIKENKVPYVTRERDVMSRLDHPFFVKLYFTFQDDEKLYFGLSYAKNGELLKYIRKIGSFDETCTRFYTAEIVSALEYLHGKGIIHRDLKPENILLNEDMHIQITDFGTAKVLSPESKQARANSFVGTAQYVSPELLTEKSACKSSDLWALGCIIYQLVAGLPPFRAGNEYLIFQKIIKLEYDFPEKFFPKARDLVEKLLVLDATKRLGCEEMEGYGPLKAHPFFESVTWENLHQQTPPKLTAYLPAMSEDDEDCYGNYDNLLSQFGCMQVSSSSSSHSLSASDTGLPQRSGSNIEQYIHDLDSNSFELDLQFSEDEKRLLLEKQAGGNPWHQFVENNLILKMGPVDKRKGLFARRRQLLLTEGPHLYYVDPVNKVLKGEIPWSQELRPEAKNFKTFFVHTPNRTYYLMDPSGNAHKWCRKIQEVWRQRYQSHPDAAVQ
How it was run: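 Test compounds were incubated with PDK1 kinase, 10 uM ATP and 50 nM biotinylated peptide substrate for 3-18 hours at pH 7.5 with 2.5% DMSO. Peptide phosphorylation was then detected by AlphaScreen proximity luminescence using a phospho-(Ser/Thr) PKA substrate antibody.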

A2780 cells = assay: Cell Proliferation Assay (Cell Titer Glo), A2780; assay type: cell-based; details: Homo sapiens, 72 h; A2780 cells, 3 days incubation; read-out: CPEC50 A2780
How it was run: (§1)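 Cells seeded at 1000/well, allowed to adhere 3-5 h, then exposed to DMSO-dissolved compounds for 3 days at 37° C., 5% CO2. Medium replaced before Cell Titer Glo addition; luminescence read after 10 min.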

PC-3 cells = assay: Cell Proliferation Assay (Cell Titer Glo), PC-3 cell line; assay type: cell-based; details: Homo sapiens, PC-3, 72 h, PC-3 cells, 3 days incubation; read-out: CP EC50 PC3
How it was run: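 PC-3 cells, 1000 cells/well, left to adhere 3-5 h, then exposed for 3 days at 37° C to compounds as 1:3 serial dilutions from 500× DMSO stocks diluted in growth medium. Medium then replaced with fresh medium and viability read by Cell Titer Glo luminescence.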

PC3MM cells = assay: Cell Proliferation Assay (Cell Titer Glo), PC3MM; assay type: cell-based; details: 72 h; PC3MM cells, 3 days incubation; read-out: CP EC50 PC3MM
How it was run: as §1

[1] = test system: pAkt308 (phosphorylation of Akt at T308) in PC-3 cells; assay: pAkt T308 ECL Assay in PC-3 cells; assay type: cell-based; details: Homo sapiens, 6 h, six hours with compound, read-out: PAKT308 PC3 IC50
How it was run: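 PC-3 cells seeded at 15,000/well overnight were treated with serially diluted compounds for 6 h at 37° C, then lysed on ice. Lysates were captured on MSD plates for pAkt T308 and total Akt, detected with 10 nM SULFO-TAG antibodies by electrochemiluminescence.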

CN1CCC(Oc2ccc3cnc(Nc4ccc(S(N)(=O)=O)cc4)nc3c2)CC1 [Compound 52, 4-[7-(1-Methyl-piperidin 4-yloxy)-quinazolin-2-ylamino]-benzenesulfonamide]
< 5 µM: IC50 (PDK1 kinase) | EC50 (A2780 cells) | EC50 (PC-3 cells) | EC50 (PC3MM cells) | IC50 [1]

CN1CCC(Oc2ccc3cnc(Nc4ccc(S(=O)(=O)N5CCOCC5)cc4)nc3c2)CC1 [Compound 53, [7-(1-Methyl-piperidin-4-yloxy)-quinazolin-2-yl]-[4-(morpholine-4-sulfonyl)-phenyl]-amine]
< 5 µM: IC50 (PDK1 kinase) | EC50 (A2780 cells) | EC50 (PC-3 cells) | IC50 [1]

NS(=O)(=O)c1ccc(Nc2ncc3ccc(-c4ccccc4)c(OC4CCNCC4)c3n2)cc1 [Compound 67, 4-[7-Phenyl-8-(piperidin-4-yloxy)-quinazolin-2-ylamino]-benzenesulfonamide]
< 5 µM: IC50 (PDK1 kinase) | EC50 (A2780 cells) | EC50 (PC-3 cells) | IC50 [1]

CC(C)N1CCC(c2c(O)ccc3cnc(Nc4ccc(S(N)(=O)=O)cc4)nc23)CC1 [Compound 134, 4-[7-Hydroxy-8-(1-isopropyl-piperidin-4-yl)-quinazolin-2-ylamino]-benzenesulfonamide]
< 5 µM: IC50 (PDK1 kinase) | EC50 (A2780 cells) | EC50 (PC-3 cells) | IC50 [1]

Cn1cc(-c2ccc3cnc(Nc4ccc(S(N)(=O)=O)cc4)nc3c2)cn1 [Compound 136, 4-[7-(1-Methyl-1H-pyrazol-4-yl)-quinazolin-2-ylamino]-benzenesulfonamide]
< 5 µM: IC50 (PDK1 kinase) | EC50 (A2780 cells) | EC50 (PC-3 cells) | IC50 [1]

NS(=O)(=O)c1ccc(Nc2ncc3ccc(-c4cccnc4F)cc3n2)cc1 [Compound 137, 4-[7-(2-Fluoro-pyridin-3-yl)-quinazolin-2-ylamino]-benzenesulfonamide]
< 5 µM: IC50 (PDK1 kinase) | EC50 (A2780 cells) | EC50 (PC-3 cells) | IC50 [1]
